The values below come from article PMC11206691, “N-Hydroxypiridinedione: A Privileged Heterocycle for Targeting the HBV RNase H” (Molecules, 2024).

Read-outs that look alike come from different tables or passages of the source.

Data set [1] is described as follows: Solubility limit assay (turbidity, DMEM-F12 + 10% FBS). The settings on record: DMEM-F12 without phenol red with 10% FBS, plasma or biological fluid, kinetic from dmso stock; pH 7.4, DMEM-F12 with 10% FBS, 1% DMSO, upper limit 200 µM. Format: physicochemical. Here is the method: Compound solubility limits were tested in DMEM-F12 without phenol red (Gibco, Grand Island, NY, USA) supplemented with 10% FBS (pH 7.2–7.4) to mimic cell culture experiments, as we have performed previously. Compounds were serially diluted in buffer at pH 7.4 in 384-well, optically clear plates (upper limit 200 µM, DMSO 1%) and read on a plate reader at 620 nm. Compound concentration (µM) was plotted against optical density (OD) and a solubility limit was determined by identifying an inflection point where there was a significant increase in optical density due to increasing turbidity; the concentration of the compound at the inflection point was defined as the solubility limit. Two or more replicate assays were performed on different days for each compound.

Data set [2] deals with HBV replication. The data set can be described thus: qPCR HBV replication inhibition assay in HepDES19 cells. Format: cell-based, Hepatitis B virus (HBV) genotype D. Particulars: Hepatitis B virus, 72 h, (+) DNA qPCR, read-out: EC50. How it is done: (§1) HepDES19 cells were incubated on collagen-coated plates at 37 °C with 5% CO2 and saturating humidity in Dulbecco’s modified Eagle’s medium (DMEM/F12) (Cytiva Life Sciences, Marlborough, MA, USA) supplemented with 10% fetal bovine serum (FBS), penicillin (100 IU/mL), and streptomycin (100 µg/mL). HepDES19 cells are HepG2 cells that carry a stably transfected HBV genotype D genome under the control of a tetracycline repressible promoter. Cells were maintained in the presence of 1 µg/mL tetracycline to repress the expression of the stably integrated HBV genome, and HBV replication was induced by the withdrawal of tetracycline from the culture medium.
HBV replication inhibition was measured in HepDES19 cells induced to replicate HBV by the removal of tetracycline using a strand-preferential quantitative PCR assay as previously described. Cells were seeded at 4 × 10^4 cells/well in 96-well plates for 48 h. Serially diluted compound was then added to cells at a final concentration of 1% DMSO for 72 h, after which the cells were lysed and qPCR was performed as described in Li et al.. EC50 values were calculated from the (+) DNA data with GraphPad Prism using the four-parameter log (inhibitor) versus response algorithm with the bottom value set to zero. Three or more replicate assays were performed on different days.

Data set [3] can be described thus: Parallel artificial membrane permeability assay. The data set is classed as in vitro ADME. Particulars: PAMPA; for Papp interpretation (high/low permeability category) at 2 h, 200 µM: pH 7.4, pH 7.4; for Papp at 2 h, 200 µM: pH 7.4, pH 7.4, 200 μM, room temperature. How it is done: Apparent passive permeability (Papp) was assessed at pH 7.4 using a 96-well donor/acceptor cassette (Sigma Aldrich, Burlington, MA, USA), which mimics the apical and basolateral sides of the small intestine epithelium, as we have described previously. Briefly, an artificial membrane composed of 1% w/v lethicin/dodecane was added to the poly (vinylidene fluoride) (PVDF) membrane filter. Once dry, compounds (200 μM) were diluted in buffer at pH 7.4 and added to the donor side of the membrane, and the same pH buffer was added to the acceptor side. The cassette was assembled and incubated at room temperature with shaking at 250 rpm for 2 h, after which 100 μL of the acceptor well was retrieved and the experimental compound absorbance was read on a plate reader between 200 and 600 nm. Compound Papps (cm/s) values were determined by normalizing to the compound absorbance at equilibrium, incubation time, and membrane porosity Two or more replicate assays were conducted on different days.
A general note: PAMPA measures passive passage across an artificial lipid membrane.

Data set [4] has as its system HepDES19 cells. The data set can be described thus: MTS cytotoxicity assay. Format: cell-based. Particulars: 72 h. Here is the method: as §1
(§2) Cell viability was assessed using the CellTiter 96^TM Aqueous Non-Radioactive Cell Proliferation assay (MTS) (Promega, Madison, WI, USA) as described previously. HepDES19 cells were seeded at 1 × 10^4 cells per well in 96-well, and compound was added after 48 h. Cells incubated with serially diluted compound (1% DMSO) for 72 h. Bac absorbance values were subtracted, and data were converted to percent cell viability. The cytotoxic concentration 50% (CC50) values were calculated with GraphPad Prism by using the four-parameter variable response log (inhibitor) versus response algorithm with the bottom value set to zero. Three or more replicate assays were performed on different days.
In general terms: Tetrazolium assays rely on reduction of a dye to a coloured formazan, in cell work by metabolically active cells.

The next data set is described as follows: MTS cytotoxicity assay. Format: cell-based. The settings on record: human, HepDES19 cells. How it is done:
as §1, §2

Data set [5] has as its system HepDES19 cells. Also noted: method as in PMID 28450058, PMID 28633989, PMID 29565562, PMID 30768944. Particulars: Figures 1 and 2, earlier inhibitors; cited from earlier work.
For data set [6], the system named is HBV replication. The settings on record: Figures 1 and 2, earlier inhibitors; cited from earlier work.

By solubility is commonly meant the concentration that dissolves in the medium under given conditions. In general, EC50 refers to the concentration needed to bring the measured effect to its halfway point. As usually defined, the Papp is the rate of passage across a membrane or cell layer, normalised by area and donor concentration. By melting point is commonly meant the temperature of the solid-liquid transition. The term CC50 denotes the concentration at which the toxic effect on the cells reaches its halfway point. For the compound `COC(=O)c1ccc(CON=C(C)c2c(C)cc(=O)n(O)c2O)cc1` [Compound 47, 4′-((((1′-(1,2-Dihydroxy-4-methyl-6-oxo-1,6-dihydropyridin-5-yl)ethylidene)amino)oxy)methyl)methyl benzoate], the melting point was 120 °C (dec.). In addition, in data set [1], the solubility is more than 200 µM. Moreover, the half-maximal effective concentration (EC50) in the data set with HBV replication [2] turned out to be 1.1 ± 0.4 µM. Besides, in data set [3], the Papp interpretation (high/low permeability category) at 2 h, 200 µM is more than 1 ×10⁻⁶ cm/s and the Papp at 2 h, 200 µM came to 5.52 ×10⁻⁶ cm/s. The CC50 result in the data set with HepDES19 cells [4] is “minimally cytotoxic”. Also, the CC50 at 72 h in “MTS cytotoxicity assay” was 100 µM.
Regarding `COc1ccc(CON=C(C)c2c(C)cc(=O)n(O)c2O)cc1` [A24], the cytotoxic concentration (CC50) in the data set with HepDES19 cells [5] is 102 µM. The EC50 in the data set with HBV replication [6] is 290 nM.
As for `O=C(Nc1ccc2c(c1)C(=O)N(O)C(=O)C2C(=O)NCc1ccc(F)cc1)c1ccccc1` (stereo not drawn) [HID], in the data set on HepDES19 cells [5], the CC50 is 99 µM. For the same compound, the EC50 with HBV replication [6] is 1400 nM.
In the case of `NCc1ccc(-c2ccc(Cc3cc(=O)n(O)c4ncccc34)cc2)cc1` [HNO], the CC50 in the data set with HepDES19 cells [5] was 7.1 µM. Further, the EC50 with HBV replication [6] was 3400 nM.
Compound `CC(=NOCc1ccc([N+](=O)[O-])cc1)c1c(C)cc(=O)n(O)c1O` [Compound 48, 1,6-Dihydroxy-4-methyl-5-(1-(((4-nitrobenzyl)oxy)imino)ethyl)pyridin-2(1H)-one] displayed a melting point of 105 to 107 °C. In addition, the solubility in data set [1] was more than 200 µM. For the same compound, the EC50 in the data set on HBV replication [2] amounted to 1.1 ± 0.2 µM. In addition, in data set [3], the Papp interpretation (high/low permeability category) at 2 h, 200 µM is more than 1 ×10⁻⁶ cm/s and the Papp at 2 h, 200 µM is 5.38 ×10⁻⁶ cm/s. Also, the CC50 result in the data set on HepDES19 cells [4] is “minimally cytotoxic”. Moreover, it took 99.6 ± 0.6 µM to reach half-maximal cytotoxicity in “MTS cytotoxicity assay” (CC50 at 72 h).
With `COC(=O)c1cc(Cl)c(CON=C(C)c2c(C)cc(=O)n(O)c2O)c(Cl)c1` [Compound 36, Methyl 3,5-dichloro-4-((((1-(1,2-dihydroxy-4-methyl-6-oxo-1,6-dihydropyridin-3-yl)ethylidene)amino)oxy)methyl)benzoate], the melting point was 117 to 119 °C (dec.). In addition, the solubility in data set [1] turned out to be 163 µM. In addition, in the data set with HBV replication [2], the EC50 was determined as 3.1 ± 0.4 µM. Further, in data set [3], the Papp interpretation (high/low permeability category) at 2 h, 200 µM was more than 1 ×10⁻⁶ cm/s and the Papp at 2 h, 200 µM turned out to be 4.35 ×10⁻⁶ cm/s. The CC50 at 72 h in “MTS cytotoxicity assay” is 100 µM.
Take `C/C(=N\c1cccc(Br)c1)c1c(C)cc(=O)n(O)c1O` [HPD imine]: in the data set with HepDES19 cells [5], the CC50 was 62.3 µM. The EC50 in the data set on HBV replication [6] was 1100 nM.
As to `CC(=NOCc1ccc(O)cc1)c1c(C)cc(=O)n(O)c1O` [Compound 39, 1,6-Dihydroxy-5-(1-(((4-hydroxybenzyl)oxy)imino)ethyl)-4-methylpyridin-2(1H)-one], the melting point is 98 to 100 °C (dec.). In addition, in data set [1], the solubility is more than 200 µM. Moreover, the EC50 in the data set with HBV replication [2] came out at 5.2 ± 0.9 µM. Further, in data set [3], the Papp interpretation (high/low permeability category) at 2 h, 200 µM was more than 1 ×10⁻⁶ cm/s and the Papp at 2 h, 200 µM turned out to be 5.21 ×10⁻⁶ cm/s. The CC50 at 72 h in the data set “MTS cytotoxicity assay” turned out to be 91.1 ± 14.3 µM.
Consider `CC(=NOC(c1cc(F)cc(F)c1)c1ccccn1)c1c(C)cc(=O)n(O)c1O` (stereo not drawn) [Compound 38, 5-(1-(((3,5-Difluorophenyl)(pyridin-2-yl)methoxy)imino)ethyl)-1,6-dihydroxy-4-methylpyridin-2(1H)-one], for which the melting point was 102 to 104 °C (dec.). The solubility in data set [1] is 167 µM. In addition, in the data set on HBV replication [2], the concentration giving a half-maximal response (EC50) came out at 2.3 ± 0.2 µM. Also, in data set [3], the Papp interpretation (high/low permeability category) at 2 h, 200 µM is more than 1 ×10⁻⁶ cm/s and the Papp at 2 h, 200 µM was 2.61 ×10⁻⁶ cm/s. Also, the CC50 at 72 h in “MTS cytotoxicity assay” amounted to 47.1 ± 21.7 µM.
Consider `COC(=O)c1ccc(C(C)ON=C(C)c2c(C)cc(=O)n(O)c2O)cc1` (stereo not drawn) [Compound 34, Methyl-4-(1-(((1-(1,2-dihydroxy-4-methyl-6-oxo-1,6-dihydropyridin-3-yl)ethylidene)amino)oxy)ethyl)benzoate], for which the melting point is 130 °C (dec.). Besides, the solubility in data set [1] turned out to be 50 µM. Besides, in the data set with HBV replication [2], the EC50 came to 6.3 ± 5.5 µM. Moreover, in data set [3], the Papp interpretation (high/low permeability category) at 2 h, 200 µM was more than 1 ×10⁻⁶ cm/s and the Papp at 2 h, 200 µM stood at 2.5 ×10⁻⁶ cm/s. Also, the midpoint of cytotoxicity in “MTS cytotoxicity assay”, the CC50 at 72 h, lay at 96 ± 5.7 µM.
For `COC(=O)c1c2c(cc(O)c(=O)c1O)COC2=O` [a-HT], the CC50 with HepDES19 cells [5] was more than 77 µM. Moreover, the EC50 in the data set with HBV replication [6] is 500 nM.
As for `CC(=NOC(CNC(=O)c1ccco1)c1cc(F)cc(F)c1)c1c(C)cc(=O)n(O)c1O` (stereo not drawn) [Compound 37, N-(2-(3,5-Difluorophenyl)-2-(((1-(1,2-dihydroxy-4-methyl-6-oxo-1,6-dihydropyridin-3-yl)ethylidene)amino)oxy)ethyl)furan-2-carboxamide], the melting point is 118 to 120 °C (dec.). Moreover, in data set [1], the solubility is 175 µM. Also, the EC50 with HBV replication [2] was 4.7 ± 3 µM. Further, in data set [3], the Papp interpretation (high/low permeability category) at 2 h, 200 µM was more than 1 ×10⁻⁶ cm/s and the Papp at 2 h, 200 µM stood at 4.96 ×10⁻⁶ cm/s. In addition, the CC50 at 72 h in the data set “MTS cytotoxicity assay” is 100 µM.
